In assay [1] the target is T1, OFQ receptor (rat, LC132) (Rattus norvegicus, UniProt P35370).
T1 construct: expressed in transfected cells; host or cells: HEK-293 cells adapted to suspension growth (293s), vector pCEP4; total membrane fraction of 293s-OFQ-R cells
In words: OFQ-R binding assay: [3H]-OFQ competition on membranes of 293s-OFQ-R cells. The note with it: Ki from IC50 by Cheng and Prusoff, at least 6 concentrations in triplicate, determined twice, read-out: OFQ pKi (converted). The protocol:
Methods of OFQ-R Binding Assay
HEK-293 cells adapted to suspension growth (293s) were cultured in HL medium plus 2% FBS. The cells were transfected with the rat OFQ receptor cDNA (LC132), FEBS Lett. 347, 284-288, 1994, cloned in the expression vector pCEP4 (Invitrogen, San Diego, Calif., USA) using lipofectin (Life Technologies, Bethesda, Md., USA). Transfected cells were selected in the presence of hygromycin (1000 U/ml) (Calbiochem, San Diego, Calif., USA). A pool of resistant cells was tested for OFQ-R expression by binding of [^3 H]-OFQ (Amersham PLC, Buckinghamshire, England). These cells (293s-OFQ-R) were expanded for large scale culture and membrane preparation.
293s-OFQ-R cells were harvested by centrifugation, washed 3 times with phosphate buffered saline (PBS) before resuspension in buffer A (50 mM Tris-HCl, pH 7.8, 5 mM MgCl2, 1 mM EGTA) and disruption with a tissue homogenizer (30 seconds, setting 4, Pt 20, Kinematica, Kriens-Lucern, Switzerland). A total membrane fraction was obtained by centrifugation at 49,000×g at 4° C. This procedure was repeated twice and the pellet was resuspended in buffer A. Aliquots were stored at -70° C. and protein concentrations were determined using the BCA™ Protein Assay Reagent (Pierce, Rockford, Ill.) following the manufacturer's recommendations.
[^3 H]-OFQ competition studies were carried out with 77 μg membrane protein in a final assay volume of 0.5 ml buffer A plus 0.1% BSA and 0.01% bacitracin (Boehringer-Mannheim, Mannheim, Germany) for one hour at room temperature. 50 nM unlabeled OFQ was used to define the non-specific binding. […] The retained radioactivity was counted on a Packard Top-Count microplate scintillation counter after addition of 40 μl of Microscint 40 (Canberra Packard). The effects of compounds were determined using at least 6 concentrations in triplicate, and determined twice. IC50 values were determined by curve fitting and these calues were converted to Ki values by the method of Cheng and Prusoff, Biochem. Pharmacol., 22, 3099, 1973.

Assay [2] relates to OFQ-R. Conditions: both in vitro and in vivo; cited from earlier work.
Assay [3] concerns adenylate cyclase in CHO(LC 132^+) cells. The note with it: CHO(LC 132+) cells in culture; cited from earlier work.
Assay [4] concerns mice. Conditions: intra-cerebroventricular; cited from earlier work.
The test system of assay [5] is mice. The note with it: intra-cerebroventricular; cited from earlier work. The source holds these as a separate data set.

Where a name gives a salt, the structure may show the parent alone.

T1 sequence (P35370 whole entry): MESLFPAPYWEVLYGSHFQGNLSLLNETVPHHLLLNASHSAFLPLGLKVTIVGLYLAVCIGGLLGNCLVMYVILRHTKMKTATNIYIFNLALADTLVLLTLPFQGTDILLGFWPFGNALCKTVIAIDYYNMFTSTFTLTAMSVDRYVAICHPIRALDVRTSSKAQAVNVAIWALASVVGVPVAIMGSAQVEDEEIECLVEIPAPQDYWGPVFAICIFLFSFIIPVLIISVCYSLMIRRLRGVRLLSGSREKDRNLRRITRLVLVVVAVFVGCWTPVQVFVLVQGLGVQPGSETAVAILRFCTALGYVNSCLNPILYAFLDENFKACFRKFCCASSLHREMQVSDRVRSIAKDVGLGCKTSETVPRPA

Take `O=C1OC2(CCN(CCNC3c4ccccc4CCc4ccccc43)CC2)c2ccccc21` [A/1, 1'-[2-(10,11-Dihydro-5H-dibenzo[a,d]cyclohepten-5-ylamino)-ethyl]-spiro[isobenzofuran-1,4'-piperidin]-3-one methansulfonate (1:2)]: the Ki in assay [1] was 50.1 nM.

Regarding `c1ccc2c(c1)CCCCC2NCCN1CCC2(CC1)OCc1ccccc12` (stereo not shown) [B/5, [2-(3H-Spiro[isobenzofuran-1,4'-piperidin]-1'yl)-ethyl]-(5,6,7,8-tetrahydro-4H-benzocyclohepten-4-yl)-amine hydrochloride (1:2)], in assay [1], the Ki is 100 nM.

In the case of `c1ccc(C(OCCN2CCC3(CC2)OCc2ccccc23)c2ccccc2)cc1` [Example C, 1'-(2Benzhydryloxy-ethyl)-3H-spiro[isobenzofuran-1,4'-piperidine]hydrochloride (1:1)], in assay [1], the Ki was 12.6 nM.

“F-G-G-F-T-G-A-R-K-S-A-R-K-L-A-N-Q (FGGFTGARKSARKLANQ) [OFQ, seventeen amino-acid-long peptide isolated from rat brain, natural ligand for a G-protein coupled receptor (OFQ-R)]”: the “agonistic activity at the OFQ-R” value in assay [2] was “exhibits agonistic activity”. Further, the “inhibition of adenylate cyclase” value in assay [3] was “inhibits adenylate cyclase”. Further, in assay [4], the hyperalgesia entry is recorded as “induces hyperalgesia”. Moreover, the locomotive activity result in assay [5] is listed as “slows down locomotive activity”.

These data come from patent publication US6166209A, “Piperidine derivatives” (Hoffmann-La Roche Inc., priority 1997, dated 2000).
